Results reported in patent US20240391923A1, “METHIONINE ADENOSYLTRANSFERASE 2A INHIBITOR FOR TREATING MTAP DELETION-TYPE CANCER” (SUZHOU GENHOUSE BIO CO., LTD., priority 2022, published 2024).
Where two headings read alike, the source gives them in different places.

Columns and labels:
[1] = Stability test in liver microsomes, human; assay type: in vitro ADME, humans; conditions: human liver microsomes 0.5 mg/mL, 1.0 μM substrate, up to 60 min; read-out: Metabolic half-life in human liver microsome ( T1/2, min)
[2] = Stability test in liver microsomes, mouse; assay type: in vitro ADME, CD-1 mice; conditions: CD-1; mouse liver microsomes 0.5 mg/mL, 1.0 μM substrate, up to 60 min; read-out: Metabolic half-life in mouse liver microsome (T½, min)
[3] = Stability test in liver microsomes, rat; assay type: in vitro ADME, Sprague-Dawley rats; conditions: Sprague-Dawley; rat liver microsomes 0.5 mg/mL, 1.0 μM substrate, up to 60 min; read-out: Metabolic half-life in rat liver microsome (T½, min)
[4] = biological target: MAT2A recombinant protein (Homo sapiens, UniProt P31153); experiment: MAT2A inhibitory activity (malachite green colorimetric enzyme assay); assay type: biochemical
Chain of MAT2A recombinant protein (P31153 whole entry): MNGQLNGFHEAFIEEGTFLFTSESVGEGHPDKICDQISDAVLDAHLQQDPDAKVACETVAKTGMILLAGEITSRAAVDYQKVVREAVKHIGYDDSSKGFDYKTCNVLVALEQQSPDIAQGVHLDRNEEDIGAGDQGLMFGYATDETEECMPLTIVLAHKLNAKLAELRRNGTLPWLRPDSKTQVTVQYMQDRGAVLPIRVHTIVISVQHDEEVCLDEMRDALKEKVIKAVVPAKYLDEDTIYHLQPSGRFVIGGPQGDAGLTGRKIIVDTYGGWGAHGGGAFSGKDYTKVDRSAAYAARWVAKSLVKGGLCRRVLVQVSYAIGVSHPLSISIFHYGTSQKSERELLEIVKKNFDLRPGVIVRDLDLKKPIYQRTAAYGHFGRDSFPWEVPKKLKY
Procedure, shortened: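 Compounds tested over 10 points, 3-fold dilutions, top final concentration 1000 nM. Enzyme reaction: MAT2A, L-methionine, ATP, room temperature, 60 min, in HEPES pH 7.5 buffer with KCl, MgCl2 and DTT; inorganic phosphate read colorimetrically (malachite green, A630). Inhibition vs log concentration fitted for IC50.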

CYP2C19 = biological target: T1, CYP2C19 (Homo sapiens, UniProt P33261); experiment: Cytochrome oxidase P450 inhibition test, CYP2C19; assay type: in vitro ADME; conditions: liver microsome incubation
T1 construct: from tissue; host or cells: liver microsome
T1 sequence (P33261 whole entry): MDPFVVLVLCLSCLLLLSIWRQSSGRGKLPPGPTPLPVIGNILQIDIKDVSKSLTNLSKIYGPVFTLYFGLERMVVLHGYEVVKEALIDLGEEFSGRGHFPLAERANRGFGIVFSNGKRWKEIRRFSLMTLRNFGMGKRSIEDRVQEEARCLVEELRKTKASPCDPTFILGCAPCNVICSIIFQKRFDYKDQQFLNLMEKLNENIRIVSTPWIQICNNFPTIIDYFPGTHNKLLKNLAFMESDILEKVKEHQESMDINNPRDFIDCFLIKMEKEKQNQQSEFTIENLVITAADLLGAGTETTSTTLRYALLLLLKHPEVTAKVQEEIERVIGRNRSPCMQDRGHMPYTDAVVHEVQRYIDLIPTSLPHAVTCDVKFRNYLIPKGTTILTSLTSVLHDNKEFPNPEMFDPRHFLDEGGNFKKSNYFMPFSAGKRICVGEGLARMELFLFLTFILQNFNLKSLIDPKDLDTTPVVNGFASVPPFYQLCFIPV
Method: (§1) 100 mM K-Buffer: 9.5 mL of stock solution A was mixed with 40.5 mL of stock solution B, the total volume was adjusted to […] with ultrapure water, and the buffer was titrated to pH 7.4 with KOH or H3PO4. • Starting material A (1 M potassium dihydrogen phosphate): 136.5 g of potassium dihydrogen phosphate in 1 L of water. • Stock B […] in 1 L of water. The test substance powder was prepared into a stock solution with a certain concentration using DMSO or other organic solvents, which was then further diluted using a proper organic solvent. The extracorporeal incubation system for CYP450 enzyme metabolism phenotype study was biochemical reaction of a prepared liver microsome, a redox coenzyme, and an enzyme-specific selective inhibitor in simulated physiological temperature and environment. The concentration of the parent drug or a metabolite thereof in the incubation solution was determined by LC-MS/MS.

hERG potassium current = biological target: T2, hERG potassium current (Homo sapiens, UniProt Q12809); experiment: hERG inhibition test (whole-cell patch clamp, Qpatch); assay type: cell-based; conditions: initial concentration 30 μM, 6 concentration points
T2 construct: expressed in transfected cells; host or cells: HEK293, cultured under G418 selection
T2 sequence (Q12809 whole entry): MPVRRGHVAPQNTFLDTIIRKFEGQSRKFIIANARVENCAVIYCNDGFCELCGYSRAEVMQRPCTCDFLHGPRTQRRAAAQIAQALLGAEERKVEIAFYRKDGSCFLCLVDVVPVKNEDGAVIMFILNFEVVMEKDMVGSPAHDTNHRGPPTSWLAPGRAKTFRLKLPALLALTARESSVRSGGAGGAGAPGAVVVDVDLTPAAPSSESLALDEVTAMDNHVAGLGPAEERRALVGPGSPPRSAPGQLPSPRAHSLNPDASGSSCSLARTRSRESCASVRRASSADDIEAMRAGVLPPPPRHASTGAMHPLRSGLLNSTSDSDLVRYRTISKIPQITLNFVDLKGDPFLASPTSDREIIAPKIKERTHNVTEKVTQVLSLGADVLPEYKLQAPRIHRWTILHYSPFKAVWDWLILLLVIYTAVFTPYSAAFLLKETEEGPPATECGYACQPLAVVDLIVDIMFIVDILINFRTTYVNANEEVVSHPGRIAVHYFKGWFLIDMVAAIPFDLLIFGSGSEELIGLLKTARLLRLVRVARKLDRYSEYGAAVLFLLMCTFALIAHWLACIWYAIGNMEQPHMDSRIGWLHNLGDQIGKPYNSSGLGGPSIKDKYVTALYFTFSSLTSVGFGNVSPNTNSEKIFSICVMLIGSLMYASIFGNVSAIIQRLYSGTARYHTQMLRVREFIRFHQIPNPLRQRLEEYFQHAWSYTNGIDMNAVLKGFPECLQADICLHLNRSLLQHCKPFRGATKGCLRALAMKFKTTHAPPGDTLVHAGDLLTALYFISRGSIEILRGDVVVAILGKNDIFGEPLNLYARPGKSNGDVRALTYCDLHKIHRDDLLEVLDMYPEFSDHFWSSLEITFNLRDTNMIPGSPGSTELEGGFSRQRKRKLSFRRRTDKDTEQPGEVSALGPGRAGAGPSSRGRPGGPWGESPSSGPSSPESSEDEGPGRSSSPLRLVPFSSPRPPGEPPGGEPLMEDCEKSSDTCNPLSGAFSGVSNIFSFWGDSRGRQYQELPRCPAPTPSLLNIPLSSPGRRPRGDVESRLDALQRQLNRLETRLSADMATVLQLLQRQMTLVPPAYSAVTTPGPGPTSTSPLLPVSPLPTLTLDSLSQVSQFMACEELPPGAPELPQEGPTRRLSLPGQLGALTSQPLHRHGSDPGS
Method: The BEK293 cells were cultured in a DiVEM medium containing […] and 0.8 mg/mL G418 at 37° C. with 5% o CO2. The cells were digested by TrypLE™ Express and centrifuged. The cell density was adjusted to 2×10^6 cells/mL. The cells were gently mixed for 15-20 min using a shaker equilibrated at room temperature, and subjected to patch clamping on a machine. The medium of the prepared cells was replaced with extracellular fluid. The intracellular fluid and the extracellular fluid were taken from the fluid pool, and respectively added to the intracellular fluid pool and the cell and the test substance pool of the QPlate chip. The voltage stimulation of the whole-cell hERG potassium current was recorded by the whole-cell patch clamp, and the test data was collected and stored by Qpatch. The compound was diluted 3-fold at an initial concentration of 30 μM, and 6 concentration points were set, with each drug concentration being set for two administrations over a period of at least 5 min. The current detected in compound-free extracellular fluid for each cell was served as its own control group, and the detection was repeated at least twice independently using two cells per concentration. All electrophysiological experiments were performed at room temperature.
For data analysis, the current acted for each drug concentration and the current of the blank control were standardized
and then the inhibition rate corresponding to each drug concentration was calculated
The mean and standard error were calculated for each concentration, and the half maximal inhibitory concentration of each compound was calculated:
The dose-dependent effect was fitted non-linearly using the above equation, wherein Y represents the inhibition rate, C represents the concentration of the test substance, IC50 is the half maximal inhibitory concentration, and HillSlope represents the Hill coefficient. Curve fitting and calculation of IC50 were performed by Graphpad software.

CYP2C9 = biological target: T3, CYP2C9 (Homo sapiens, UniProt P11712); experiment: Cytochrome oxidase P450 inhibition test, CYP2C9; assay type: in vitro ADME; conditions: liver microsome incubation
T3 construct: from tissue; host or cells: liver microsome
T3 sequence (P11712 whole entry): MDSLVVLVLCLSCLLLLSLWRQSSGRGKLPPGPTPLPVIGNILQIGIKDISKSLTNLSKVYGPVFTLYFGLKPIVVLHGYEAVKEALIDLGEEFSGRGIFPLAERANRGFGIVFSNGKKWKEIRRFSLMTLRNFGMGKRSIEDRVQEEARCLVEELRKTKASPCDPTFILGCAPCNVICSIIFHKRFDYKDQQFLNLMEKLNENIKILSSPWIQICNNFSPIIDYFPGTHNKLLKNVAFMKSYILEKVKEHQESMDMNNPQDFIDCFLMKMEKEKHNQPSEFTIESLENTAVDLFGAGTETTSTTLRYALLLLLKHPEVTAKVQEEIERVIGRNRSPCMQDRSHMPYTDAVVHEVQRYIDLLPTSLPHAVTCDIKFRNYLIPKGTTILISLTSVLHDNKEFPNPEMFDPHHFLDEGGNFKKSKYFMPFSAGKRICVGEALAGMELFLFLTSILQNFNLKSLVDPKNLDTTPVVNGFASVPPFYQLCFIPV
Method: as §1

DOHH-2 cell strain = experiment: Tumor cell proliferation inhibition assay (CellTiter-Glo), DOHH-2; assay type: cell-based; conditions: Homo sapiens, 120 h, DOHH-2 cells, 5-day treatment
Procedure, shortened: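 Ten-point compound titration (1:3, highest 10 μM) started 24 h after plating, DMSO group included; cultures kept 5 days at 37° C. with 5% CO2 before CellTiter-Glo ATP readout of growth inhibition.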

CYP2D6 = biological target: T4, CYP2D6 (Homo sapiens, UniProt P10635); experiment: Cytochrome oxidase P450 inhibition test, CYP2D6; assay type: in vitro ADME; conditions: liver microsome incubation
T4 construct: from tissue; host or cells: liver microsome
T4 sequence (P10635 whole entry): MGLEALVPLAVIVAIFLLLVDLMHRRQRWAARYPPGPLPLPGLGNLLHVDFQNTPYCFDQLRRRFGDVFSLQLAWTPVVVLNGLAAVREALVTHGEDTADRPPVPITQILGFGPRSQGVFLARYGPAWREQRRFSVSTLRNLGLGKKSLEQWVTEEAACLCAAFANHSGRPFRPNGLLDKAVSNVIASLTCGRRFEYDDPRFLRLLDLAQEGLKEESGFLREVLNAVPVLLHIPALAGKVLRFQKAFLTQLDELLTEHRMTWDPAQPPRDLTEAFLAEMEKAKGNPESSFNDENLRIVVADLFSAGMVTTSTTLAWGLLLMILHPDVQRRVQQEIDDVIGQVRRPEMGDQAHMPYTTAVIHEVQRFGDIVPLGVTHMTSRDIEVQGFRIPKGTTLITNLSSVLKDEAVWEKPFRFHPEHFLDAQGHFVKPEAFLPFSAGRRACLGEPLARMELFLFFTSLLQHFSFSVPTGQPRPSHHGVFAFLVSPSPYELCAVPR
Method: as §1

[5] = Pharmacokinetic test in rats (IV and PO); assay type: in vivo; conditions: rat, plasma, SD rats; for half-life: read-out: T½ (converted)
[6] = IC50 score class, read-out: MAT2A Inhibition (score)
[7] = IC50 score, read-out: Tumor cell 5-day relative growth inhibition (DOHH-2) (nM), score
[8] = IC50 value, read-out: Tumor cell 5-day relative growth inhibition (DOHH-2)

Row | SMILES | half-life at 1 μM [1] [min] | half-life at 1 μM [2] [min] | half-life at 1 μM [3] [min] | IC50 [4, 6] [nM] | IC50 ([4]; read-out: MAT2A Inhibition) [nM] | IC50 (CYP2C19) [nM] | IC50 (hERG potassium current) [nM] | IC50 (CYP2C9) [nM] | IC50 (DOHH-2 cell strain; [7]) [nM] | IC50 (DOHH-2 cell strain; [8]) [nM] | IC50 (CYP2D6) [nM] | AUC ([5]; IV 1 mg/kg) [µM·h] | clearance ([5]; IV 1 mg/kg) [mL/min/kg] | bioavailability ([5]; IV 1 mg/kg, PO 5 mg/kg) [%] | half-life ([5]; IV 1 mg/kg) [h] | AUC ([5]; PO 5 mg/kg) [µM·h] | half-life ([5]; PO 5 mg/kg) [h] | bioavailability ([5]; IV 1 mg/kg, PO 10 mg/kg) [%] | half-life ([5]; PO 10 mg/kg) [h]
1 | Cn1cc2c(n1)c(=O)n(-c1ccccc1Cl)c1nc(C(F)(F)F)ccc21 [Compound B182] | 258 | 136 | 20.4 | < 100 | 56.9 | – | – | – | – | – | – | – | – | – | – | – | – | – | –
2 | Cc1ncccc1-n1c(=O)c2nn(C)cc2c2ccc(C(F)(F)F)nc21 (single isomer, unassigned) [Compound B180] | – | – | – | – | – | > 10000 | > 30000 | > 10000 | < 500 | 134 | > 10000 | – | – | – | – | – | – | – | –
3 | Cn1cc2c(n1)c(=O)n(-c1cccnc1)c1cc(Cl)ccc21 [Compound B12] | > 145 | > 145 | > 145 | – | – | > 10000 | > 30000 | > 10000 | 500 to 2000 | 1110 | > 10000 | 18.9 | 2.67 | 217 | 3.4 | 223 | 3.7 | – | –
4 | Cn1cc2c(n1)c(=O)n(-c1cccc(O)c1)c1nc(C(F)(F)F)ccc21 [Compound B148] | > 145 | 120 | 142 | < 100 | 24.6 | – | > 30000 | – | < 500 | 443 | – | – | – | – | – | – | – | – | –
5 | Cn1cc2c(n1)c(=O)n(-c1cccc3[nH]ncc13)c1cc(Cl)ccc21 [Compound B60] | 722 | > 145 | > 145 | < 100 | 47.5 | > 10000 | > 40000 | > 10000 | < 500 | 39.1 | > 10000 | – | – | – | – | – | – | – | –
6 | O=c1c2n[nH]cc2c2ccc(C(F)(F)F)nc2n1-c1cccnc1 [Compound B178] | – | – | – | < 100 | 19 | – | > 30000 | – | – | – | – | – | – | – | – | – | – | – | –
7 | Cn1cc2c(n1)c(=O)n(-c1cccnc1C1CC1)c1cc(Cl)c(F)cc21 [Compound B340] | – | – | – | – | – | – | – | – | – | – | – | 10.2 | 4.5 | – | 6.7 | 68.9 | 14.7 | – | –
8 | Cn1cc2c(n1)c(=O)n(-c1cccc3[nH]ncc13)c1cc(Cl)c(C#N)cc21 [Compound B258] | – | – | – | < 100 | 28 | – | – | – | – | – | – | – | – | – | – | – | – | – | –
9 | Cn1cc2c(n1)c(=O)n(-c1cccc3[nH]ncc13)c1cc(Cl)c(F)cc21 [Compound B257] | – | – | – | < 100 | 39.6 | – | > 30000 | – | – | – | – | 177 | 0.283 | – | 8.8 | – | – | 243 | 72.8
10 | Cn1cc2c(n1)c(=O)n(-c1cccc3[nH]ncc13)c1nc(C(F)(F)F)ccc21 [Compound B181] | > 145 | > 145 | > 145 | < 100 | 14.7 | > 30000 | > 30000 | > 30000 | 500 to 2000 | 1040 | > 30000 | 120 | 0.333 | 90 | 6.7 | 541 | 9.5 | – | –
